For the assay, the system named is B. cepacia. In words: Pigment formation (virulence suppression). The assay is classed as cell-based, Burkholderia cepacia.

With `O=C(O)CN1C(=O)C(=Cc2ccc(OCc3ccc(Cl)cc3)cc2)SC1=S` [Compound 82], the pigment formation entry is “repressing the pigment formation”.

The record behind these values is patent US20190307729A1, “ANTIMICROBIAL COMPOUNDS AND METHODS FOR USE THEREOF” (VERSITECH LIMITED, priority 2016, published 2019).
